Assay results taken from patent publication US8481561B2, “Classes of GABAA/BZR ligands” (Innovationspatent Sverige AB, priority 2008, dated 2013).

Key:
benzodiazepine receptor = assay: Displacement of 3H-flumazenil binding in rat cortical tissue (receptor binding); settings: 3H-Flumazenil binding in vitro, rat cortical membranes; mean of three determinations
Experimental: Affinity of test substances for the benzodiazepine receptor was determined in vitro by displacement of ^3H-flumazenil in rat cortical tissue.

| Structure (SMILES) | melting point | Ki (benzodiazepine receptor) |
| --- | --- | --- |
| Cc1ccc(-c2nsc3[nH]c4ccc(C)cc4c(=O)c23)cc1 [Compound 19, 6-Methyl-3-(4-methylphenyl)isothiazolo[5,4-b]quinolin-4(9H)-one] | 330 °C | 1.9 nM |
| Cc1ccc2[nH]c3snc(-c4ccc(Br)cc4)c3c(=O)c2c1 [Compound 21, 3-(4-Bromophenyl)-6-methylisothiazolo[5,4-b]quinolin-4(9H)-one] | 357 °C | 5.3 nM |
| COc1ccc(-c2nsc3[nH]c4ccc(C)cc4c(=O)c23)cc1 [Compound 22, 3-(4-Methoxyphenyl)-6-methylisothiazolo[5,4-b]quinolin-4(9H)-one] |  | 2 nM |

Continued, values first:

| melting point | Ki (benzodiazepine receptor) | Structure (SMILES) |
| --- | --- | --- |
| 343 °C | 5.5 nM | Cc1ccc2[nH]c3snc(-c4ccc([N+](=O)[O-])cc4)c3c(=O)c2c1 [Compound 23, 6-Methyl-3-(4-nitrophenyl)-isothiazolo[5,4-b]quinolin-4(9H)-one] |
| 331 °C | 2.9 nM | Cc1ccc(-c2nsc3[nH]c4ccc(Br)cc4c(=O)c23)cc1 [Compound 24, 6-Bromo-3-(4-methylphenyl)isothiazolo[5,4-b]quinolin-4(9H)-one] |
|  | 18 nM | Cc1ccc2[nH]c3onc(-c4ccccc4)c3c(=O)c2c1 [Compound 26, 6-Methyl-3-phenyl-isoxazolo[5,4-b]quinolin-4(9H)-one] |
|  | 2 nM | CCCC(=O)Nc1nsc2[nH]c3ccc(C)cc3c(=O)c12 [Compound 31, N-(6-methyl-4-oxo-4,9-dihydroisothiazolo[5,4-b]quinolin-3-yl)butanamide] |
